The results in this text go back to patent US9359308B2, “Pyrazine kinase inhibitors” (Portola Pharmaceuticals, Inc., priority 2011, dated 2016).

This test concerns the target T1, full length active recombinant SYK enzyme (Homo sapiens, UniProt P43405).
T1 construct: full length active recombinant SYK enzyme (Millipore, Calif.); purchased Millipore
Description: Inhibition of Syk tyrosine phosphorylation activity (LANCE TR-FRET kinase assay). It is filed as biochemical. The settings on record: activity in the Syk assays, class symbols. The method, boiled down: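 IC50 was derived by non-linear regression of TR-FRET signal (Eu-W1024-PY100 donor, streptavidin-APC acceptor) read 1 h after EDTA quench. The kinase step ran 1 h at room temperature with 1 nM full-length SYK, 550 nM biotinylated DEEDYESP substrate and 100 μM ATP in Tris pH 7.5/MgCl2/DTT at 3% final DMSO.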
Regarding `NC(=O)c1ncc(N[C@@H]2CCCC(F)(F)[C@@H]2N)nc1Nc1ccc2c(c1)COC2` [Example 452, 5-(((1R,2R)-2-amino-3,3-difluorocyclohexyl)amino)-3-((1,3-dihydroisobenzofuran-5-yl)amino)pyrazine-2-carboxamide], the IC50 – broadly, the concentration that gives 50% inhibition – lay within 1 to 10 nM.

Take `NC(=O)c1ncc(N[C@@H]2CCCC[C@@H]2N)nc1Nc1cccc(C(F)(F)F)c1` [Example 199, 5-((1R,2S)-2-aminocyclohexylamino)-3-(3-(trifluoromethyl)phenylamino)pyrazine-2-carboxamide]: the 50% inhibitory concentration (IC50) fell in the range of 1 to 10 nM.

With `CCc1cc(Nc2nc(N[C@@H](C(N)=O)C(C)C)cnc2C(N)=O)sn1` [Example 224, (R)-5-(1-amino-3-methyl-1-oxobutan-2-ylamino)-3-(3-ethylisothiazol-5-ylamino)pyrazine-2-carboxamide], the IC50 was 1 to 10 nM.

Take `CC(C)[C@@H](Nc1cnc(C(N)=O)c(Nc2ccc(CN3CCOCC3)cc2)n1)C(N)=O` [Example 148, (R)-5-(1-amino-3-methyl-1-oxobutan-2-ylamino)-3-(4-(morpholinomethyl)phenylamino)pyrazine-2-carboxamide]: the IC50 lay in the range of 100 to 1000 nM.

As to `COc1ccc(C(=O)N(C)C)cc1Nc1nc(N[C@@H]2CCCC[C@@H]2N)cnc1C(N)=O` [Example 290, 5-((1R,2S)-2-aminocyclohexylamino)-3-(5-(dimethylcarbamoyl)-2-methoxyphenylamino)pyrazine-2-carboxamide], the IC50 lay within 100 to 1000 nM.

On to `CC[C@@H](Nc1cnc(C(N)=O)c(Nc2ccc(-c3ncco3)cc2)n1)C(N)=O` [Example 446], for which the IC50 was 1 to 10 nM.

With `NC(=O)c1ncc(N[C@H]2CCCNC2)nc1Nc1cnc2ccccc2c1` [Example 57, (S)-5-(piperidin-3-ylamino)-3-(quinolin-3-ylamino)pyrazine-2-carboxamide], the IC50 is 100 to 1000 nM.

For `CC[C@@H](Nc1cnc(C(N)=O)c(Nc2ccnc(OC)c2)n1)C(N)=O` [Example 302, (R)-5-(1-amino-1-oxobutan-2-ylamino)-3-(2-methoxypyridin-4-ylamino)pyrazine-2-carboxamide], the IC50 lay within 10 to 100 nM.

On to `CN(C)C(=O)c1ccc(Nc2nc(N[C@@H]3CCCC[C@@H]3N)cnc2C(N)=O)cc1` [Example 277, 5-((1R,2S)-2-aminocyclohexylamino)-3-(4-(dimethylcarbamoyl)phenylamino)pyrazine-2-carboxamide], for which the IC50 fell in the range of 10 to 100 nM.

Turning to `NC(=O)c1ncc(N[C@@H]2CCCC(F)(F)[C@@H]2N)nc1Nc1ccc(-c2ccncc2)cc1` [Example 26, 5-((1R,2R)-2-amino-3,3-difluorocyclohexylamino)-3-(4-(pyridin-4-yl)phenylamino)pyrazine-2-carboxamide], the IC50 was 10 to 100 nM.

Turning to `NC(=O)c1ncc(N[C@@H]2CCCC[C@@H]2N)nc1Nc1cc(-n2ccnn2)cc(-n2ccnn2)c1` [Example 432, 5-(((1R,2S)-2-aminocyclohexyl)amino)-3-((3,5-di(1H-1,2,3-triazol-1-yl)phenyl)amino)pyrazine-2-carboxamide], the half-maximal inhibitory concentration (IC50) was in the range of 1 to 10 nM.

As to `C[C@@H](Nc1cnc(C(N)=O)c(Nc2cc(C3CC3)ns2)n1)C(N)=O` [Example 239, (R)-5-(1-amino-1-oxopropan-2-ylamino)-3-(3-cyclopropylisothiazol-5-ylamino)pyrazine-2-carboxamide], the IC50 lay in the range of 1 to 10 nM.

With `CC[C@@H](Nc1cnc(C(N)=O)c(Nc2ccc3c(c2)CCC(=O)N3)n1)C(N)=O` [Example 30, (R)-5-(1-amino-1-oxobutan-2-ylamino)-3-(2-oxo-1,2,3,4-tetrahydroquinolin-6-ylamino)pyrazine-2-carboxamide], the IC50 lay within 1 to 10 nM.

As to `CC[C@@H](Nc1cnc(C(N)=O)c(Nc2ccnc(OC3CCC3)c2)n1)C(N)=O` [Example 354, (R)-5-(1-amino-1-oxobutan-2-ylamino)-3-(2-cyclobutoxypyridin-4-ylamino)pyrazine-2-carboxamide], the concentration for half-maximal inhibition (IC50) fell in the range of 1 to 10 nM.

As to `NC(=O)c1ncc(N[C@@H]2CCNC2)nc1Nc1cccc(-n2nccn2)c1` [Example 105, (R)-3-((3-(2H-1,2,3-triazol-2-yl)phenyl)amino)-5-(pyrrolidin-3-ylamino)pyrazine-2-carboxamide], the IC50 lay in the range of 1 to 10 nM.

Consider `Cc1cc(Nc2nc(NC3(C(N)=O)CCCCC3)cnc2C(N)=O)sn1` [Example 401, 5-(1-carbamoylcyclohexylamino)-3-(3-methylisothiazol-5-ylamino)pyrazine-2-carboxamide], for which the IC50 lay in the range of 10 to 100 nM.

With `NC(=O)c1ncc(N[C@H](CC(F)(F)F)C(N)=O)nc1Nc1cnc2cccnc2c1` [Example 126, (R)-3-((1,5-naphthyridin-3-yl)amino)-5-((1-amino-4,4,4-trifluoro-1-oxobutan-2-yl)amino)pyrazine-2-carboxamide], the half-maximal inhibitory concentration (IC50) fell in the range of 1 to 10 nM.

Regarding `NC(=O)c1ncc(N[C@@H]2CCCC(F)(F)[C@@H]2N)nc1Nc1cccnc1` [Example 371, 5-((1R,2R)-2-amino-3,3-difluorocyclohexylamino)-3-(pyridin-3-ylamino)pyrazine-2-carboxamide], the IC50 lay in the range of 10 to 100 nM.

For `CC[C@@H](Nc1cnc(C(N)=O)c(Nc2cc(C3CC3)ns2)n1)C(N)=O` [Example 238, (R)-5-(1-amino-1-oxobutan-2-ylamino)-3-(3-cyclopropylisothiazol-5-ylamino)pyrazine-2-carboxamide], the IC50 lay in the range of 1 to 10 nM.

With `CC[C@@H](Nc1cnc(C(N)=O)c(Nc2ccc(C3CC3)nc2)n1)C(N)=O` [Example 341, (R)-5-(1-amino-1-oxobutan-2-ylamino)-3-(6-cyclopropylpyridin-3-ylamino)pyrazine-2-carboxamide], the 50% inhibitory concentration (IC50) lay within 10 to 100 nM.

In the case of `NC(=O)c1ncc(N[C@@H]2CCCC(F)(F)[C@@H]2N)nc1Nc1ccnc(C2CC2)c1` [Example 346, 5-((1R,2R)-2-amino-3,3-difluorocyclohexylamino)-3-(2-cyclopropylpyridin-4-ylamino)pyrazine-2-carboxamide], the IC50 is 1 to 10 nM.

For `NC(=O)c1ncc(N[C@@H]2CCCC[C@@H]2N)nc1Nc1cncc(F)c1` [Example 418, 5-(((1R,2S)-2-aminocyclohexyl)amino)-3-((5-fluoropyridin-3-yl)amino)pyrazine-2-carboxamide], the IC50 was 1 to 10 nM.

On to `CC(C)[C@@H](Nc1cnc(C(N)=O)c(Nc2cccc(CN3CCOCC3)c2)n1)C(N)=O` [Example 144, (R)-5-(1-amino-3-methyl-1-oxobutan-2-ylamino)-3-(3-(morpholinomethyl)phenylamino)pyrazine-2-carboxamide], for which the IC50 fell in the range of 100 to 1000 nM.

Turning to `C[C@@H](Nc1cnc(C(N)=O)c(Nc2cnc3ccc(F)cc3c2)n1)C(N)=O` [Example 243, (R)-5-(1-amino-1-oxopropan-2-ylamino)-3-(6-fluoroquinolin-3-ylamino)pyrazine-2-carboxamide], the IC50 fell in the range of 1 to 10 nM.

Turning to `CS(=O)(=O)c1ccc(Nc2nc(N[C@@H]3CCCC[C@@H]3N)cnc2C(N)=O)cc1` [Example 153, 5-((1R,2S)-2-aminocyclohexylamino)-3-(4-(methylsulfonyl)phenylamino)pyrazine-2-carboxamide], the IC50 lay in the range of 1 to 10 nM.

With `Cc1cc(Nc2nc(N[C@H]3CN[C@@H](CO)C3)cnc2C(N)=O)sn1` [Example 139, 5-(((3R,5R)-5-(hydroxymethyl)pyrrolidin-3-yl)amino)-3-((3-methylisothiazol-5-yl)amino)pyrazine-2-carboxamide], the IC50 was 10 to 100 nM.

For `NC(=O)c1ncc(N[C@@H]2CCCC[C@@H]2N)nc1Nc1cnn(-c2ccccc2)c1` [Example 262, 5-((1R,2S)-2-aminocyclohexylamino)-3-(1-phenyl-1H-pyrazol-4-ylamino)pyrazine-2-carboxamide], the IC50 was below 1 nM.

In the case of `NC(=O)c1ncc(N[C@@H]2CCCC[C@@H]2N)nc1Nc1cnc2scnc2c1` [Example 434, 5-(((1R,2S)-2-aminocyclohexyl)amino)-3-(thiazolo[5,4-b]pyridin-6-ylamino)pyrazine-2-carboxamide], the IC50 is 1 to 10 nM.

Regarding `NC(=O)c1ncc(N[C@@H]2CCCC(F)(F)[C@@H]2N)nc1Nc1cccc(-c2ncccn2)c1` [Example 16, 5-((1R,2R)-2-amino-3,3-difluorocyclohexylamino)-3-(3-(pyrimidin-2-yl)phenylamino)pyrazine-2-carboxamide], the IC50 is 100 to 1000 nM.

On to `CC(C)[C@@H](Nc1cnc(C(N)=O)c(Nc2ccc(S(=O)(=O)N(C)C)cc2)n1)C(N)=O` [Example 156, (R)-5-(1-amino-3-methyl-1-oxobutan-2-ylamino)-3-(4-(N,N-dimethylsulfamoyl)phenylamino)pyrazine-2-carboxamide], for which the IC50 was 10 to 100 nM.

`CCc1ccc(Nc2nc(N[C@H](CC(C)C)C(N)=O)cnc2C(N)=O)cn1` [Example 347, (R)-5-(1-amino-4-methyl-1-oxopentan-2-ylamino)-3-(6-ethylpyridin-3-ylamino)pyrazine-2-carboxamide]: the IC50 was in the range of 1 to 10 nM.

Regarding `NC(=O)c1ncc(N[C@@H]2CCCC(F)(F)[C@@H]2N)nc1Nc1cnc2ccccc2c1` [Example 102, 5-((1R,2R)-2-amino-3,3-difluorocyclohexylamino)-3-(quinolin-3-ylamino)pyrazine-2-carboxamide], the IC50 is 10 to 100 nM.

For the molecule `CC(C)C[C@@H](Nc1cnc(C(N)=O)c(Nc2cccc(-c3ccccn3)c2)n1)C(N)=O` [Example 98, (R)-5-(1-amino-4-methyl-1-oxopentan-2-ylamino)-3-(3-(pyridin-2-yl)phenylamino)pyrazine-2-carboxamide], the IC50 is 10 to 100 nM.

For the molecule `Cn1ccc2cc(Nc3nc(N[C@@H]4CCCC(F)(F)[C@@H]4N)cnc3C(N)=O)ccc21` [Example 391, 5-((1R,2R)-2-amino-3,3-difluorocyclohexylamino)-3-(1-methyl-1H-indol-5-ylamino)pyrazine-2-carboxamide], the IC50 lay within 1 to 10 nM.
